Data: DBAASP
Converted amounts (≈) assume the structure as drawn. One block for each compound: values may come before it.

Tests used:
Assay in all cases: ≥ marks a high value that may be exact or a test limit, other limits are often not marked, values filed in µg/mL are converted to µM
Escherichia coli MG1655 = system: Escherichia coli MG1655
[1] = system: Escherichia coli ATCC 8739
[2] = system: Staphylococcus aureus ATCC 25923
Candida albicans = system: Candida albicans
[3] = system: Pseudomonas aeruginosa PAO1
[4] = system: Escherichia coli ATCC 25922
Escherichia coli = system: Escherichia coli
[5] = system: Escherichia coli DH5alpha
[6] = system: Pseudomonas aeruginosa H188
[7] = system: Pseudomonas aeruginosa ATCC 27853
[8] = system: Staphylococcus epidermidis ATCC 12228
[9] = system: Salmonella enterica subsp. enterica serovar Pullorum ATCC 7913
Escherichia coli UB1005 = system: Escherichia coli UB1005
[10] = system: Candida tropicalis CGMCC 2.1975
[11] = system: Staphylococcus aureus ATCC 43300
Escherichia coli K99 = system: Escherichia coli K99
[12] = system: Candida parapsilosis CGMCC 2.3989
[13] = system: Salmonella enterica subsp. enterica serovar Typhimurium ATCC 14028
Escherichia coli K88 = system: Escherichia coli K88
[14] = system: Salmonella enterica subsp. enterica serovar Typhimurium C77-31
Escherichia coli 078 = system: Escherichia coli 078
[15] = system: Cryptococcus neoformans ATCC 208821
[16] = system: Acinetobacter baumannii ATCC 19606
[17] = system: Klebsiella pneumoniae ATCC 700603
[18] = system: Candida albicans ATCC 90028
[19] = system: Staphylococcus aureus ATCC 6538
[20] = system: Bacillus subtilis ATCC 6633

Structure (SMILES): CC(C)C[C@H](NC(=O)[C@@H](NC(=O)[C@H](CCC(=O)O)NC(=O)[C@@H](N)CCCN=C(N)N)C(C)C)C(=O)NCC(=O)N[C@@H](Cc1ccc(O)cc1)C(=O)N[C@@H](CCC(=O)O)C(=O)N[C@@H](CCCN=C(N)N)C(=O)N[C@@H](CC(N)=O)C(=O)N[C@@H](CO)C(=O)N[C@@H](Cc1ccc(O)cc1)C(=O)N[C@@H](CCCCN)C(N)=O [REVLGYERNSYK]
MIC [2]: > 128 µM | MIC (Candida albicans): > 128 µM | MIC [3]: > 128 µM | MIC (Escherichia coli MG1655): ≥ 128 µM

Structure (SMILES): CC[C@H](C)[C@H](NC(=O)[C@H](C)NC(=O)[C@H](CCCCN)NC(=O)[C@H](CC(C)C)NC(=O)[C@H](C)NC(=O)[C@@H](NC(=O)[C@H](Cc1cnc[nH]1)NC(=O)[C@H](CC(C)C)NC(=O)CNC(=O)[C@@H](NC(=O)[C@H](CCCCN)NC(=O)[C@H](CCCCN)NC(=O)[C@H](C)NC(=O)[C@H](CO)NC(=O)[C@H](CCCCN)NC(=O)[C@H](Cc1ccccc1)NC(=O)[C@@H](NC(=O)[C@H](CCCCN)NC(=O)[C@H](CC(C)C)NC(=O)[C@H](Cc1ccccc1)NC(=O)[C@H](CO)NC(=O)[C@H](CCCCN)NC(=O)[C@H](Cc1c[nH]c2ccccc12)NC(=O)[C@H](CCCCN)NC(C)=O)[C@@H](C)O)[C@@H](C)O)[C@@H](C)O)C(=O)N[C@@H](CO)C(=O)N[C@@H](CO)C(N)=O [KWKSFLKTFKSAKKTGLHTALKAISS]
MIC [4]: 2.75 µM (≈ 8.11 µg/mL) | MIC (Escherichia coli): 5.5 µM (≈ 16.2 µg/mL) | MIC [5]: 2.75 µM (≈ 8.11 µg/mL) | MIC [6]: 2.75 µM (≈ 8.11 µg/mL) | MIC [7]: 11 µM (≈ 32.5 µg/mL)

Structure (SMILES): CC[C@H](C)[C@H](NC(=O)[C@H](CCCN=C(N)N)NC(=O)[C@H](C)NC(=O)[C@H](C)N)C(=O)N[C@H](C(=O)N[C@@H](CC(C)C)C(=O)N[C@@H](CCCN=C(N)N)C(=O)N[C@@H](CC(C)C)C(=O)N[C@@H](CCCN=C(N)N)C(=O)N[C@@H](Cc1ccccc1)C(=O)N[C@@H](CCCN=C(N)N)C(N)=O)[C@@H](C)CC [AARIILRLRFR]
MIC [8]: 2 µM (≈ 2.77 µg/mL) | MIC [2]: 2 µM (≈ 2.77 µg/mL) | MIC [9]: 4 µM (≈ 5.54 µg/mL) | MIC (Escherichia coli UB1005): 4 µM (≈ 5.54 µg/mL) | MIC [10]: 4 µM (≈ 5.54 µg/mL) | MIC [11]: 2 µM (≈ 2.77 µg/mL) | MIC (Escherichia coli K99): 2 µM (≈ 2.77 µg/mL) | MIC [12]: 4 µM (≈ 5.54 µg/mL) | MIC [13]: 4 µM (≈ 5.54 µg/mL) | MIC (Escherichia coli K88): 4 µM (≈ 5.54 µg/mL) | MIC [14]: 4 µM (≈ 5.54 µg/mL) | MIC (Escherichia coli 078): 4 µM (≈ 5.54 µg/mL) | MIC [7]: 8 µM (≈ 11.1 µg/mL)

Structure (SMILES): CC[C@H](C)[C@H](NC(=O)[C@H](C)NC(=O)[C@@H](NC(=O)[C@H](CCCCN)NC(=O)[C@H](CCCCN)NC(=O)[C@H](Cc1cnc[nH]1)NC(=O)[C@@H](NC(=O)[C@H](CCCCN)NC(=O)[C@H](CS)NC(=O)[C@@H](NC(=O)[C@@H](NC(=O)[C@H](CCCN=C(N)N)NC(=O)[C@@H](NC(=O)[C@H](C)NC(=O)[C@H](CC(C)C)NC(=O)[C@H](CCCCN)NC(=O)[C@@H]1CCCN1)[C@@H](C)CC)[C@@H](C)CC)[C@@H](C)O)[C@@H](C)CC)C(C)C)C(=O)N[C@@H](CO)C(=O)N[C@H](C(=O)O)C(C)C [PKLAIRITCKIHKKVAISV]
MIC [2]: 121 µM (≈ 256 µg/mL) | MIC [1]: 30.2 µM (≈ 64 µg/mL)

Structure (SMILES): NC(=O)CC[C@H](NC(=O)[C@H](Cc1cnc[nH]1)NC(=O)[C@H](CO)NC(=O)[C@H](CCCN=C(N)N)NC(=O)[C@H](Cc1ccccc1)NC(=O)[C@H](Cc1cnc[nH]1)NC(=O)[C@H](CCCN=C(N)N)NC(=O)[C@H](Cc1cnc[nH]1)NC(=O)[C@H](Cc1cnc[nH]1)NC(=O)[C@@H](N)CO)C(=O)N[C@@H](CS)C(=O)N[C@@H](CCCN=C(N)N)C(=O)N[C@@H](CCCN=C(N)N)C(=O)O [SHHRHFRSHQCRR]
MIC [4]: > 18.3 µM | MIC [11]: 18.3 µM (≈ 32 µg/mL) | MIC [15]: 4.59 µM (≈ 8 µg/mL) | MIC [16]: > 18.3 µM | MIC [17]: > 18.3 µM | MIC [18]: 18.3 µM (≈ 32 µg/mL) | MIC [7]: > 18.3 µM

Structure (SMILES): CC[C@H](C)[C@H](NC(=O)[C@H](CCCCN)NC(=O)[C@H](CCCCN)NC(=O)[C@H](CCCCN)NC(=O)[C@@H](NC(=O)[C@H](CCCN=C(N)N)NC(=O)[C@@H](NC(=O)[C@H](CC(C)C)NC(=O)[C@H](CC(C)C)NC(=O)[C@H](CCCCN)NC(=O)[C@H](CCSC)NC(=O)[C@@H]1CCCN1)C(C)C)C(C)C)C(=O)NCC(=O)N[C@@H](CC(=O)O)C(=O)N[C@@H](C)C(=O)N[C@@H](CC(C)C)C(=O)N[C@@H](CCC(=O)O)C(=O)N[C@@H](CC(C)C)C(=O)NCC(=O)O [PMKLLVRVKKKIGDALELG]
MIC [1]: ≥ 60.7 µM

The next lines start with the values.

MIC (Escherichia coli MG1655): ≥ 128 µM
Structure (SMILES): CC[C@H](C)[C@H](NC(=O)[C@H](CCCCN)NC(=O)CNC(=O)[C@H](CC(C)C)NC(=O)[C@H](Cc1ccccc1)NC(=O)[C@H](CCC(N)=O)NC(=O)[C@H](Cc1ccccc1)NC(=O)[C@@H](N)C(C)C)C(=O)N[C@H](C(=O)N[C@@H](Cc1cnc[nH]1)C(=O)N[C@@H](Cc1cnc[nH]1)C(=O)N[C@H](C(=O)NCC(=O)N[C@@H](CC(N)=O)C(=O)N[C@@H](Cc1ccccc1)C(=O)N[C@H](C(=O)N[C@@H](C)C(=O)NCC(=O)N[C@@H](Cc1ccccc1)C(=O)N[C@@H](CO)C(=O)N[C@@H](C)C(=O)N[C@H](C(=O)N[C@@H](Cc1ccccc1)C(N)=O)C(C)C)C(C)C)C(C)C)[C@@H](C)CC [VFQFLGKIIHHVGNFVAGFSAVF]

MIC [1]: 14.6 µM (≈ 32 µg/mL)
Structure (SMILES): CC[C@H](C)[C@H](NC(=O)[C@H](CCCCN)NC(=O)[C@H](CC(=O)O)NC(=O)[C@H](CC(C)C)NC(=O)[C@@H](NC(=O)[C@H](CCCN=C(N)N)NC(=O)[C@H](CC(C)C)NC(=O)[C@H](CC(C)C)NC(=O)[C@H](CC(C)C)NC(=O)[C@H](CCCCN)NC(=O)[C@H](CC(N)=O)NC(=O)[C@@H](NC(=O)[C@H](CCCCN)NC(=O)[C@H](CCCCN)NC(=O)[C@@H]1CCCN1)[C@@H](C)CC)[C@@H](C)CC)C(=O)N[C@@H](C)C(=O)N[C@@H](CO)C(=O)N[C@@H](Cc1ccccc1)C(=O)N[C@@H](CO)C(=O)O [PKKINKLLLRILDKIASFS]

MIC [19]: 3.1 µM (≈ 11.9 µg/mL) | MIC [11]: 25 µM (≈ 95.9 µg/mL) | MIC [1]: 12.5 µM (≈ 47.9 µg/mL) | MIC [20]: 6.3 µM (≈ 24.2 µg/mL) | MIC [18]: ≥ 100 µM
Structure (SMILES): CC[C@H](C)[C@H](NC(=O)CN)C(=O)N[C@@H](Cc1ccccc1)C(=O)N[C@@H](CO)C(=O)N[C@@H](CC(C)C)C(=O)N[C@H](C(=O)N[C@@H](CCCCN)C(=O)NCC(=O)N[C@@H](C)C(=O)N[C@@H](C)C(=O)N[C@@H](CCCCN)C(=O)N[C@@H](CC(C)C)C(=O)N[C@H](C(=O)N[C@H](C(=O)N[C@@H](CCCCN)C(=O)N[C@H](C(=O)N[C@H](C(=O)N[C@@H](C)C(=O)N[C@@H](CCCCN)C(=O)N[C@@H](CCC(=O)O)C(=O)N[C@@H](C)C(=O)NCC(=O)N[C@@H](CCCCN)C(=O)N[C@H](C(=O)NCC(=O)N[C@@H](CC(C)C)C(=O)N[C@@H](CCC(=O)O)C(=O)N[C@@H](CC(C)C)C(=O)N[C@@H](CCSC)C(=O)N[C@@H](C)C(=O)N[C@H]1CSSC[C@@H](C(=O)O)NC(=O)[C@H](CCC(N)=O)NC(=O)[C@H](CC(N)=O)NC(=O)[C@H]([C@@H](C)O)NC(=O)[C@H](C(C)C)NC(=O)[C@H](CCCCN)NC1=O)[C@@H](C)O)C(C)C)[C@@H](C)O)[C@@H](C)O)[C@@H](C)CC)[C@@H](C)CC [GIFSLIKGAAKLITKTVAKEAGKTGLELMACKVTNQC]
